Four compounds from ChEMBL document CHEMBL4145592, “Synthesis of Phosphatidylserine and Its Stereoisomers: Their Role in Activation of Blood Coagulation” (ACS Med Chem Lett, 2018) can be followed below.

Calls of active or inactive are those of the source. The rule behind the calls is not given here.

The target in experiment [1] is T1, Coagulation factor VII/tissue factor (Homo sapiens) (UniProt P08709+P13726). The experiment in a line: Activation of full length recombinant human His-tagged tissue factor expressed in Escherichia coli BL21(DE3)/recombinant factor 7a (unknown origin) assessed as induction of coagulant factor-10a production using S-2765 as substrate measured for 2 mins in presence of phosphatidylcholine by colorimetric method.

Experiment [2] concerns the target T1, Coagulation factor VII/tissue factor (Homo sapiens). The experiment in a line: Activation of full length recombinant human His-tagged tissue factor expressed in Escherichia coli BL21(DE3)/recombinant factor 7a (unknown origin) assessed as induction of coagulant factor-10a production using S-2765 as substrate measured for 2 mins in presence of phosphatidylcholine by colorimetric method relative to phosphatidylcholine alone.

With `CCCCCCCC/C=C\CCCCCCCC(=O)OC[C@@H](COP(=O)(O)OC[C@@H](N)C(=O)O)OC(=O)CCCCCCC/C=C\CCCCCCCC`, in experiment [1], the result was inactive.
For `CCCCCCCC/C=C\CCCCCCCC(=O)OC[C@@H](COP(=O)(O)OC[C@H](N)C(=O)O)OC(=O)CCCCCCC/C=C\CCCCCCCC`, in experiment [2], the fold change (FC) came to 2.
Take `CCCCCCCC/C=C\CCCCCCCC(=O)OC[C@H](COP(=O)(O)OC[C@H](N)C(=O)O)OC(=O)CCCCCCC/C=C\CCCCCCCC`: in experiment [2], the fold change (FC) turned out to be 6.
As to `CCCCCCCC/C=C\CCCCCCCC(=O)OC[C@H](COP(=O)(O)OC[C@@H](N)C(=O)O)OC(=O)CCCCCCC/C=C\CCCCCCCC`, the result in experiment [1] was Active.
